Assay results published in patent publication US20150258052A1, “METHODS OF USING FEXARAMINE AND AGENTS THAT INCREASE SYMPATHETIC NERVOUS SYSTEM ACTIVITY TO PROMOTE BROWNING OF WHITE ADIPOSE TISSUE” (Salk Institute for Biological Studies, priority 2014, published 2015).

Experiments:
[1] = system: FXR target gene expression; assay: FXR target gene expression (qPCR) in intestine, liver and kidney after acute PO or IP fexaramine; format: in vivo, mice
Experimental: FIGS. 1A-1C are a comparative expression chart and two bar charts, respectively, illustrating increased levels of FXR target gene expression in the intestine relative to expression in the liver and kidney. 8 week-old mice were treated with vehicle or fexaramine (100 mg/kg) via oral (PO) or intraperitoneal (IP) injection for three days (FIGS. 1A-1B) or five days (FIG. 1C).
FXR target gene expression was analyzed by qPCR. Gene expression was normalized against a vehicle-treated group.
Data represent the mean±SD. Statistical analysis was performed with the Student's t test. *p<0.05, **p<0.01.
FIG. 1F is a bar chart illustrating that orally delivered Fexaramine is intestinally-restricted. Mice received vehicle or Fexaramine (100 mg/kg) via per os (PO) or intraperitoneal (IP) injection for 5 days. Expression of the FXR target gene SHP after PO or IP injection in selected tissues is shown.
Upon exploration of the in vivo effects of fexaramine (Fex) administration, it was discovered that due to ineffectual absorption, oral (PO) and intraperitoneal (IP) drug delivery produced very different effects (FIGS. 1D and 1E).

[2] = system: white adipose tissue (WAT); assay: Inflammation, lipolysis and browning of white adipose tissue in Fex-treated DIO mice; format: in vivo
Experimental: Mice were fed on HFD for 14 weeks and subsequently subjected to daily PO injection of vehicle or fexaramine (100 mg/kg) for 5 weeks with HFD. In the bar graphs, open bars are vehicle, solid bars of fexaramine, and data represent the mean±STD. Statistical analysis was performed with the Student's t test (*p<0.05, **p<0.01).
FIG. 12F is a bar chart showing serum glycerol levels in vehicle or fexaramine-treated mice. Isoproterenol (1 μg/kg) was injected at 0 minutes and free glycerol levels were measured at the indicated time points. Data represent the mean±STD. Statistical analysis was performed with the Student's t test (*p<0.05, **p<0.01).
Mice fed a HFD for 14 weeks were maintained on a HFD and treated with vehicle or fexaramine (100 mg/kg/day os for 5 week). (I) Changes in genes associated with the browning of adipose tissue and (J) oxygen consumption rate of the stromal vascular fraction (SVF) from inguinal fat (iWAT). Data represent the mean±SD. Statistical analysis was performed with the Student's t test. *p<0.05, **p<0.01.
FIG. 13 is a set of digital images of gel electrophoreses (Western blots) showing the level of expression of various proteins in gonadal white adipose tissue (gWAT). Mice fed a HFD for 14 weeks were maintained on a HFD and treated with vehicle or fexaramine (50 mg or 100 mg/kg/day os for 5 week).
FIG. 14 is a bar chart showing that fexaramine reduces brown adipose tissue (BAT) inflammation. Mice fed a HFD for 14 weeks were maintained on a HFD and treated with vehicle or fexaramine (100 mg/kg/day os for 5 weeks). Expression of inflammatory cytokines in BAT. Data represent the mean±SD. Statistical analysis was performed with the Student's t test. *p<0.05, **p<0.01.
During obesity, adipose tissue expands by hyperplastic and/or hypertrophic growth, is chronically inflamed, and produces inflammatory cytokines that ultimately contribute to systemic metabolic dysregulation. […] These noncanonical IκB kinases were recently shown to play crucial roles in energy expenditure as a consequence of adipose tissue inflammation upon diet-induced obesity (Reilly et al., Nat Med 19:313-321, 2013).
Brown adipose-driven adaptive thermogenesis is fueled by mitochondrial oxidation of free fatty acids (FFAs) released from triglyceride stores into the circulation, predominantly by the action of hormone-sensitive lipase (HSL).

TGR5 null mice = assay: Fexaramine in HFD-fed TGR5-null mice; format: in vivo; conditions: 100 mg/kg/day PO 5 weeks
Experimental: HFD-fed TGR5-null mice were treated with vehicle or fexaramine (100 mg/kg os daily for 5 weeks with HFD, n=10). (A) Ileal FXR target gene expressions (B) Serum BA levels (C) Fasting glucose levels (D) Glucose tolerance test (E) Core body temperature (F) Oxygen consumption rate (G) Carbon dioxide production (H) Gene expression in BAT (I) Body weight curve (J) Body composition by MRI (K) Insulin Tolerance Test (L) Hepatic gene expression (M) Hepatic TG levels (N) and Gene expression in soleus of TGR5 knockout mice with and without fexaramine treatment. Data represent the mean±SD. Statistical analysis was performed with the Student's t test. *p<0.05, **p<0.01.
To address this possibility, HFD-fed TGR5 null mice were chronically treated with Fex (100 mg/kg/day PO for 5 weeks). […] In particular, the anti-lipogenic effects of Fex in the liver appear to require TGR5 activation, as key hepatic lipogenic genes and liver triglyceride content were not affected by Fex treatment (FIGS. 11L, 11M).

[3] = PO, 100 mg/kg, listed as fexaramine

COC(=O)/C=C/c1cccc(N(Cc2ccc(-c3ccc(N(C)C)cc3)cc2)C(=O)C2CCCCC2)c1 [Fex, fexaramine]
induction of FXR target gene SHP in intestine ([1]; IP, 100 mg/kg for five days): robust induction | FXR target gene expression in liver, kidney and intestines ([1]; IP, 100 mg/kg, five days): increases FXR target gene expression in the liver and kidney, in addition to the intestines | induction of SHP in liver and kidney ([1]; PO versus IP, 100 mg/kg for five days): only seen in liver and kidney after IP treatment | FXR target gene expression (IBABP, OSTα, FGF15) in intestine ([1]; PO, 100 mg/kg): induced multiple FXR target genes in the intestine | FXR target gene expression in liver or kidney ([1]; PO, 100 mg/kg): failed to affect the expression of these genes in liver or kidney | induction of FXR target gene SHP in intestine ([1]; PO, 100 mg/kg for five days): robust induction | FXR target gene expression (IBABP, OSTα, FGF15) in intestine [1, 3]: substantially enhances FXR target gene expression in the intestine | FXR target gene expression in liver or kidney [1, 3]: not in the liver or kidney | abundance of multi-locular, UCP1-expressing adipocytes in inguinal adipose tissue (immunohistochemistry) ([2]; 100 mg/kg PO 5 weeks): substantial increase | expression of TNFα, MCP-1, IL-1α and macrophage marker F4/80 in visceral and brown adipose depots ([2]; 100 mg/kg PO 5 weeks): reduced in visceral and brown adipose depots | expression of "brown fat-like" signature genes in inguinal adipose tissue ([2]; 100 mg/kg/day 5 week): increased the expression | respiratory capacity (oxygen consumption rate) of stromal vascular fraction from inguinal adipose tissue ([2]; 100 mg/kg/day 5 week): increased respiratory capacity | S6K phosphorylation (mTORC1 pathway) in gonadal WAT ([2]; Western blot): reduced S6K phosphorylation | levels of IKK-ε and TANK-binding kinase 1 (TBK1) in gWAT ([2]; Western blot): reduced levels | HSL phosphorylation in adipose depots ([2]; chronic Fex treatment): pronounced increase | serum catecholamine levels ([2]; chronic Fex treatment): increased serum catecholamine levels | serum levels of free fatty acids ([2]; chronic Fex treatment): pronounced increase | β3-adrenergic receptor expression in gonadal adipose tissue ([2]; chronic Fex treatment): increased | cross-sectional area of adipocytes in visceral depots (gonadal and mesenteric) ([2]; chronic Fex-treatment): markedly reduced | FXR target genes in ileum including FGF15 (TGR5 null mice): induced multiple FXR target genes | core body temperature and metabolic rate (TGR5 null mice): somewhat blunted increases | fasting glucose levels and glucose tolerance (TGR5 null mice): moderate improvements | key hepatic lipogenic genes and liver triglyceride content (TGR5 null mice): not affected | serum BA levels (TGR5 null mice): lowered serum BA levels | weight gain or insulin sensitivity (TGR5 null mice): no significant changes
